Assay [1] concerns the target Sigma non-opioid intracellular receptor 1 (Homo sapiens, UniProt Q99720). Kind of assay: DRUGMATRIX: Sigma1 radioligand binding (ligand: [3H] Haloperidol). The settings on record: jurkat; Not Active = under 50% inhibition at 10 µM. The class given is cell membranes, Jurkat, Membrane.
In the next assay the target is T1, Endothelin-1 receptor (Homo sapiens, UniProt P25101). Further: in other assays of this panel Not Active means under 50% inhibition at 10 µM.
T1 sequence (P25101 whole entry): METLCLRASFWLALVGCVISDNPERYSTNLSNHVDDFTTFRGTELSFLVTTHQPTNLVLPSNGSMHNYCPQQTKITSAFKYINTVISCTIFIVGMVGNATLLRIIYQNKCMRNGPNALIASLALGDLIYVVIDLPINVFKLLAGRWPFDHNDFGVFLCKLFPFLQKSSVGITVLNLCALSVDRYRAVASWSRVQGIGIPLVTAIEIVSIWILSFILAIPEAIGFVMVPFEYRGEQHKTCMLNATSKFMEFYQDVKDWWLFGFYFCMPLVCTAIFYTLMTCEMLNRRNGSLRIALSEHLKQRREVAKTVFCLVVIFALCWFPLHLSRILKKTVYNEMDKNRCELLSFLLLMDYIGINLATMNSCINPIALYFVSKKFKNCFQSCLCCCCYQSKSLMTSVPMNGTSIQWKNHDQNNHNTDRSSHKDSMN
The class given is cell membranes, Membrane. The settings on record: cho-k1.

Assay [2] in a line: DRUGMATRIX: Glutamate, AMPA radioligand binding (ligand: [3H] AMPA). The settings on record: Not Active = under 50% inhibition at 10 µM. The assay is classed as cell membranes, Rattus norvegicus, Wistar, Cerebral cortex, Membrane.
Assay [3] deals with T2, Muscarinic acetylcholine receptor M5 (Homo sapiens, UniProt P08912).
T2 sequence (P08912 whole entry): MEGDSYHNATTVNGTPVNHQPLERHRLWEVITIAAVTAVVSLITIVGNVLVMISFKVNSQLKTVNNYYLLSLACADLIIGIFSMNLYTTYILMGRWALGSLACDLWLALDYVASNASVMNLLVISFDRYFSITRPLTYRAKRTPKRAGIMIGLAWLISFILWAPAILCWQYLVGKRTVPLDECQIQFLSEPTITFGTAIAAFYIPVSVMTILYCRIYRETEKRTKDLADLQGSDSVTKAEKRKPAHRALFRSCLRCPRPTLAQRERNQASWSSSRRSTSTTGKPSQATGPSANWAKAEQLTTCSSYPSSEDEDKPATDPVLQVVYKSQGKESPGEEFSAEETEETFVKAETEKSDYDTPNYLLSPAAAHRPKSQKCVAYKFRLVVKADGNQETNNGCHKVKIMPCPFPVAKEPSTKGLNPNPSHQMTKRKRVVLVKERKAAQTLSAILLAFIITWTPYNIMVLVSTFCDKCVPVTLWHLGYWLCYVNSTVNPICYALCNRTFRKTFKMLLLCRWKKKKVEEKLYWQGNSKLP
The assay is classed as cell membranes, CHO-K1, Membrane.

Assay [4] is described as follows: DRUGMATRIX: Platelet-Derived Growth Factor (PDGF) radioligand binding (ligand: [125I] PDGF). The assay is classed as cell-based. The settings on record: nih3t3; Not Active = under 50% inhibition at 10 µM.
A short description of assay [5]: DRUGMATRIX: Potassium Channel [KATP] radioligand binding (ligand: [3H] Glyburide). The assay is classed as cell membranes, Membrane. The settings on record: hit-t15; Not Active = under 50% inhibition at 10 µM.

The term IC50 denotes the concentration at which inhibition is half-maximal. One may read the Ki as the dissociation constant of the complex between target and ligand, obtained from inhibition or displacement.

Sigma non-opioid intracellular receptor 1, sequence (Q99720 whole entry): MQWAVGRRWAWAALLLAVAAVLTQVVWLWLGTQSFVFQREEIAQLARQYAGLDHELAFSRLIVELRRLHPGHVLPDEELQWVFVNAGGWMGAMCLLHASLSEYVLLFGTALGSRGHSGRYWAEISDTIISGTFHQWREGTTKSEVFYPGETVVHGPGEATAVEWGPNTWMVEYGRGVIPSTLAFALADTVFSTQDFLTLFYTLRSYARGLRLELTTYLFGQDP

Regarding `Cc1cc(C(C)(C)C)c(O)c(C)c1CC1=NCCN1` [OXYMETAZOLINE], the IC50 entry in assay [1] was “Not Active”; against Endothelin-1 receptor, “Not Active”; in assay [2] it was “Not Active”; in assay [3] (read-out: IC50), 1.33 µM; in assay [4], “Not Active”; in assay [5], “Not Active”. For the same compound, the Ki entry in assay [2] is “Not Active”; in assay [3] (read-out: Ki), 0.957 µM; in assay [4], “Not Active”; in assay [5], “Not Active”.

Consider `C[N+](C)(C)CCOC(N)=O.[Cl-]` [CARBACHOL], for which the IC50 entry (in assay [1]; against Endothelin-1 receptor; in assay [2]; in assay [3] (cho-k1); in assay [4]; in assay [5]) was “Not Active” each time. In addition, the inhibition constant Ki result in assay [2], in assay [4] and in assay [5] was “Not Active” each time.

On to `CCN(CCO)CCCC(C)Nc1ccnc2cc(Cl)ccc12` (configuration not stated) [HYDROXYCHLOROQUINE], for which the IC50 result (in assay [1]; at Endothelin-1 receptor; in assay [2]; in assay [3] (cho-k1); in assay [4]; in assay [5]) was “Not Active” throughout. Moreover, the Ki result in assay [2], in assay [4] and in assay [5] was “Not Active” throughout.

Turning to `O=C1c2ccccc2C(=O)C1c1ccccc1` [PHENINDIONE], the IC50 entry (in assay [1]; on Endothelin-1 receptor; in assay [2]; in assay [3] (cho-k1); in assay [4]; in assay [5]) was “Not Active” each time. The Ki result in assay [2], in assay [4] and in assay [5] was “Not Active” throughout.

On to `Cc1ccnc2c1NC(=O)c1cccnc1N2C1CC1` [NEVIRAPINE], for which the IC50 result (in assay [1]; against Endothelin-1 receptor; in assay [2]; in assay [3] (cho-k1); in assay [4]; in assay [5]) was “Not Active” throughout. In addition, the Ki result in assay [2], in assay [4] and in assay [5] was “Not Active” throughout.

With `CO[C@H]1O[C@@H]2O[C@@]3(C)CC[C@H]4[C@H](C)CC[C@@H]([C@H]1C)[C@@]24OO3`, the 50% inhibitory concentration (IC50) result (in assay [1]; at Endothelin-1 receptor; in assay [2]; in assay [3] (cho-k1); in assay [4]; in assay [5]) was “Not Active” in each case. Also, the Ki entry in assay [2], in assay [4] and in assay [5] was “Not Active” in each case.

On to `CN(CCOc1ccc(C[C@H](Nc2ccccc2C(=O)c2ccccc2)C(=O)O)cc1)c1ccccn1`, for which the IC50 result (in assay [1]; against Endothelin-1 receptor; in assay [2]; in assay [3] (cho-k1); in assay [4]; in assay [5]) was “Not Active” in each case. In addition, the Ki result in assay [2], in assay [4] and in assay [5] was “Not Active” each time.

With `c1ccc2sc(SSc3nc4ccccc4s3)nc2c1` [BENZOTHIAZYL DISULFIDE], the IC50 result (in assay [1]; against Endothelin-1 receptor; in assay [2]; in assay [3] (cho-k1); in assay [4]; in assay [5]) was “Not Active” each time. Further, the Ki entry in assay [2], in assay [4] and in assay [5] was “Not Active” throughout.

On to `NS(=O)(=O)c1cc(C(=O)O)c(NCc2ccco2)cc1Cl` [FUROSEMIDE], for which the IC50 entry (in assay [1]; at Endothelin-1 receptor; in assay [2]; in assay [3] (cho-k1); in assay [4]; in assay [5]) was “Not Active” throughout. Besides, the Ki entry in assay [2], in assay [4] and in assay [5] was “Not Active” throughout.

These data come from ChEMBL document CHEMBL1909046, “DrugMatrix in vitro pharmacology data”.
